pIC50: −log10 of the molar value.
Assays:
Assay in all cases: HIV-1 RT Assay
Settings in all cases: pH 8.2
[1] = biological target: Gag-Pol polyprotein [588-1027,K690N]/[588-1147,K690N] (Human immunodeficiency virus 1, UniProt P04585, K690N)
[2] = biological target: Gag-Pol polyprotein [588-1027]/[588-1147] (Human immunodeficiency virus 1, UniProt P04585)
[3] = biological target: Gag-Pol polyprotein [588-1127,Y768C]/[588-1147,Y768C] (Human immunodeficiency virus 1, UniProt P04585, Y768C)

SMILES	pIC50 [1]	pIC50 [2]	pIC50 [3]
[O-][S+](Cc1[nH]c2ccccc2c1Sc1ccccc1)c1ccccc1 (configuration not stated) [2-[(benzenesulfinyl)methyl]-3-(phenylsulfanyl)-1H-indole]	5.59	7.20	5.52
COC(=O)c1[nH]c2ccc(Cl)cc2c1Sc1ccccc1 [methyl 5-chloro-3-(phenylsulfanyl)-1H-indole-2-carboxylate]	–	6.81	–
CNC(=O)c1[nH]c2ccccc2c1Sc1ccccc1 [N-methyl-3-(phenylsulfanyl)-1H-indole-2-carboxamide]	–	6.13	–
NC(=O)c1[nH]c2ccc(Cl)cc2c1S(=O)(=O)c1ccccc1 [5Cl3PhSO2-2IndolCONH2]	6.94	8.52	7.15
CN(C)C(=O)c1[nH]c2ccccc2c1Sc1ccccc1 [N,N-dimethyl-3-(phenylsulfanyl)-1H-indole-2-carboxamide]	–	4.06	–
COC(=O)c1[nH]c2ccccc2c1Sc1ccccc1 [methyl 3-(phenylsulfanyl)-1H-indole-2-carboxylate]	–	5.60	–
CC(C)=CCN1Cc2cc(Cl)cc3[nH]c(=S)n(c23)C[C@@H]1C [(11S)-6-chloro-11-methyl-10-(3-methylbut-2-en-1-yl)-1,3,10-triazatricyclo[6.4.1.0^{4,13}]trideca-4,6,8(13)-triene-2-thione]	5.14	6.51	4.40
[O-][S+](Cc1[nH]c2ccccc2c1[S+]([O-])c1ccccc1)c1ccccc1 (configuration not stated) [3-(benzenesulfinyl)-2-[(benzenesulfinyl)methyl]-1H-indole]	–	4.14	–
NC(=O)c1[nH]c2ccc(Cl)cc2c1[S+]([O-])c1ccccc1 (configuration not stated) [3-(benzenesulfinyl)-5-chloro-1H-indole-2-carboxamide]	5.56	7.64	5.86
NC(=O)c1[nH]c2ccc(Cl)cc2c1Sc1ccccc1 [5-chloro-3-(phenylsulfanyl)-1H-indole-2-carboxamide]	5.84	7.85	5.98
CNC(=O)c1[nH]c2ccc(Cl)cc2c1Sc1ccccc1 [5-chloro-N-methyl-3-(phenylsulfanyl)-1H-indole-2-carboxamide]	–	7.66	–
[O-][S+](Cc1[nH]c2ccc(Cl)cc2c1Sc1ccccc1)c1ccccc1 (configuration not stated) [2-[(benzenesulfinyl)methyl]-5-chloro-3-(phenylsulfanyl)-1H-indole]	–	6.95	–

Source: BindingDB's records for doi:10.1021/jm00061a022 (Merck Research Laboratories, 1993)
